Measurements: patent US9150505B2, “Prophylactic or therapeutic agent for diabetes or obesity” (AJINOMOTO CO., INC., priority 2010, dated 2015)
Where a name gives a salt, the structure may show the parent alone.

Target: T1, human CaSR (Homo sapiens, UniProt P41180)
T1 construct: expressed in transfected cells; host or cells: 293E cells (EBNA1-expressing HEK293, ATCC No. CRL-10852), transient transfection of hCaSR/pcDNA3.1
T1 sequence (P41180 20-1078): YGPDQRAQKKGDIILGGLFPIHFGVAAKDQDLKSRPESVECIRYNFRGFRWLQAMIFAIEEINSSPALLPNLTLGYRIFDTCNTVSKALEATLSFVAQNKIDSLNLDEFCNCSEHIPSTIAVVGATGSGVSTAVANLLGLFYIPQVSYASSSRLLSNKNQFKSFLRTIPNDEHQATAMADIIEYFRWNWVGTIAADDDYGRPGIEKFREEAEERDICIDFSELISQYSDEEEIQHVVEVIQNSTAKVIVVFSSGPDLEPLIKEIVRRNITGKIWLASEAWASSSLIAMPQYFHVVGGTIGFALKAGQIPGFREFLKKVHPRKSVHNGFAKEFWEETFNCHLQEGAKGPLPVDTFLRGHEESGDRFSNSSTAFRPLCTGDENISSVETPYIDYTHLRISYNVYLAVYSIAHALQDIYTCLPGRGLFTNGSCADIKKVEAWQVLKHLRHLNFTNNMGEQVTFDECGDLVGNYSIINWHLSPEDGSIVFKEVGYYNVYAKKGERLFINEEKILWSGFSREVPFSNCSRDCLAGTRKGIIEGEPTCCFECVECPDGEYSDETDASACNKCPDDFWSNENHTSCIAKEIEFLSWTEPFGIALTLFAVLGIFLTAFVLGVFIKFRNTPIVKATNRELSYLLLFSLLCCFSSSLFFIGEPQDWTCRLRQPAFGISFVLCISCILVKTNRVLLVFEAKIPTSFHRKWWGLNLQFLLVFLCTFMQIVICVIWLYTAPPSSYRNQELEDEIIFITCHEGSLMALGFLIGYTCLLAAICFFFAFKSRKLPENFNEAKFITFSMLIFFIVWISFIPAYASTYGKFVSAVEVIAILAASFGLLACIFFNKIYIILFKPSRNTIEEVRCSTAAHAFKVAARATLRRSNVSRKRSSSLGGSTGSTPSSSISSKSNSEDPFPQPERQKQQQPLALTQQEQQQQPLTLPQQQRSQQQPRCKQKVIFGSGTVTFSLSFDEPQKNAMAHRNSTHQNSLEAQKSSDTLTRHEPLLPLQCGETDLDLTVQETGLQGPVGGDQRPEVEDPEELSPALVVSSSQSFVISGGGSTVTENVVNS
Assay: Assessment of CaSR agonistic activity (Ca2+ fluorescence, FLIPR, hCaSR-transfected 293E cells)
Type: cell-based
Conditions: human CaSR-expressing 293E cells, 1.5 mM CaCl2 assay buffer, 3-minute change in fluorescence intensity
Protocol: CaSR gene was prepared according to the method described in Example 1 of WO07/55393. The resulting recombinant plasmid was used to generate human CaSR-expressing plasmid hCaSR/pcDNA3.1.
293E cells (EBNA1-expressing IIEK293 cells, ATCC No. CRL-10852) were cultured in DMEM ([…] Glucose-containing Dulbecco's modified Eagle medium, Nacalai Tesque) containing 10% bovine fetal serum in the presence of 250 μg/ml of G418. The cells were seeded on a 10 cm-diameter petri dish at 1.8×10^6 cells/15 ml, and left to stand in a CO2 incubator (5% CO2, 37° C.) for 24 hours. Thereafter, human CaSR expression plasmid hCaSR/pcDNA3.1 was transfected with transfection reagent Mirus Trans IT 293 (Takara Bio). Following static culture in a CO2 incubator for 24 hours, the cells were harvested with 10% bovine fetal serum-containing DMEM and seeded on a poly-D-lysine coat 384 well plate (Falcon) at 15,000 cells/well. Following static culture in a CO2 incubator for 24 hours, the medium was removed and the resultant was added with 50 μl/well of Ca^2+ fluorescent indicator Calcium 4 Assay Kit (Molecular Devices) dissolved in an assay buffer (146 mM NaCl, 5 mM KCl, 1 mM MgSO4, 1 mg/ml Glucose, 20 mM HEPES (PH 7.2), 1.5 mM CaCl2), and left to stand at 37° C. for an hour and then at room temperature for 30 minutes to allow intake of the indicator. The above-mentioned 384-well plate was transferred to FLIPR (Molecular Devices) and added with 12.5 μl/well of a compound dissolved in a 0.1% BSA-containing assay buffer to measure 3-minute change in the fluorescence intensity.
The difference between maximum and minimum fluorescence intensities before and after compound addition (RFU (Max−Min)) was determined by FLIPR automatic calculation. An activity rate was calculated where RFU (Max−Min) upon addition of a compound at a maximum concentration was defined 100% and RFU (Max−Min) upon addition of DMSO as a substitute for the compound at the same concentration was defined 0%. The rate was subjected to curve fitting using spreadsheet software Xfit to determine EC50 value, i.e., a compound concentration upon 50% activity rate.

Compound	EC50
COc1c(NC(=O)NC[C@H](N)C(=O)O)cccc1C(=O)O [Example 100, 3-({[(2S)-2-amino-2-carboxyethyl]carbamoyl}amino)-2-methoxybenzoic acid]	5.8 µM
N#CCC[C@H](N)COC(=O)Nc1cc(Cl)cc(S(=O)(=O)O)c1O [Example 12, 3-({[(2S)-2-amino-4-cyanobutoxy]carbonyl}amino)-5-chloro-2-hydroxybenzene-1-sulfonic acid]	1.1 µM
N[C@@H](CCC(=O)Nc1cc(Cl)cc(S(=O)(=O)O)c1O)C(=O)NO [Example 41, 3-[(4S)-4-amino-4-(hydroxycarbamoyl)butanamide]-5-chloro-2-hydroxybenzene-1-sulfonic acid]	0.039 µM
N[C@@H](CCC(=O)Nc1cc(Cl)cc(S(=O)(=O)O)c1O)C(=O)NCCc1cccc(Cl)c1 [Example 32, 3-[(4S)-4-amino-4-{[2-(3-chlorophenyl)ethyl]carbamoyl}butanamide]-5-chloro-2-hydroxybenzene-1-sulfonic acid]	1.2 µM
Cc1ccc(NC(=O)NC[C@H](N)C(=O)O)cc1C(=O)O [Example 99, 5-({[(2S)-2-amino-2-carboxyethyl]carbamoyl}amino)-2-methylbenzoic acid]	15 µM
N[C@@H](CNC(=O)Nc1cc(C(=O)O)ccc1Cl)C(=O)O [Example 88, 3-({[(2S)-2-amino-2-carboxyethyl]carbamoyl}amino)-4-chlorobenzoic acid]	2.3 µM
N[C@@H](CCC(=O)Nc1cccc(S(=O)(=O)O)n1)C(=O)O [Example 42, (2S)-2-amino-4-[(6-sulfopyridine-2-yl)carbamoyl]butanoic acid trifluoroacetic acid salt]	13 µM
COc1ccc(NC(=O)NC[C@H](N)C(=O)O)cc1S(=O)(=O)O [Example 81, (2S)-2-amino-3-{[(4-methoxy-3-sulfophenyl)carbamoyl]amino}propanoic acid]	3.7 µM
COC(=O)[C@@H](N)CNC(=O)Nc1cc(Cl)cc(S(=O)(=O)O)c1O [Example 67, 3-({[(2S)-2-amino-3-methoxy-3-oxopropyl]carbamoyl}amino)-5-chloro-2-hydroxybenzene-1-sulfonic acid]	0.003 µM
CN(C)[C@@H](CCC(=O)Nc1cc(Cl)cc(S(=O)(=O)O)c1O)C(=O)O [Example 76, (2S)-4-[(5-chloro-2-hydroxy-3-sulfophenyl)carbamoyl]-2-(dimethylamino)butanoic acid]	1.8 µM
N[C@@H](CCC(=O)Nc1cc(Cl)cc(S(=O)(=O)O)c1O)C(=O)NS(=O)(=O)c1ccccc1 [Example 62, 3-[(4S)-4-amino-4-[(benzenesulfonyl)carbamoyl]butanamide]-5-chloro-2-hydroxybenzene-1-sulfonic acid]	2.3 µM
N[C@@H](CNC(=O)Nc1cccc(C(=O)O)c1)C(=O)O [Example 85, 3-({[(2S)-2-amino-2-carboxyethyl]carbamoyl}amino)benzoic acid]	1.6 µM
N[C@@H](CNC(=O)Nc1cccc(C(=O)O)c1O)C(=O)O [Example 90, 3-({[(2S)-2-amino-2-carboxyethyl]carbamoyl}amino)-2-hydroxybenzoic acid]	1 µM
CS(=O)(=O)NC(=O)[C@@H](N)CCC(=O)Nc1cc(Cl)cc(S(=O)(=O)O)c1O [Example 34, 3-[(4S)-4-amino-4-(methanesulfonylcarbamoyl)butanamide]-5-chloro-2-hydroxybenzene-1-sulfonic acid]	0.39 µM
CN[C@@H](CNC(=O)Nc1cc(Cl)c(C)c(S(=O)(=O)O)c1)C(=O)O [Example 79, (2S)-3-{[(3-chloro-4-methyl-5-sulfophenyl)carbamoyl]amino}-2-(methylamino)propanoic acid]	0.313 µM
N[C@@H](CSC(=O)Nc1cccc(S(=O)(=O)O)c1)C(=O)O [Example 4, (2R)-2-amino-3-{[(3-sulfophenyl)carbamoyl]sulfanyl}propanoic acid]	0.04 µM
Cc1c(Cl)cc(S(=O)(=O)O)cc1NC(=S)NC[C@H](N)C(=O)O [Example 47, (2S)-2-amino-3-{[(3-chloro-2-methyl-5-sulfophenyl)carbamothioyl]amino}propanoic acid]	0.004 µM
N[C@@H](CNC(=O)Nc1cc(S(=O)(=O)O)ccc1F)C(=O)O [Example 104, (2S)-2-amino-3-{[(2-fluoro-5-sulfophenyl)carbamoyl]amino}propanoic acid]	0.49 µM
Cc1cc(C)c(S(=O)(=O)O)cc1NC(=O)NC[C@H](N)C(=O)O [Example 89, (2S)-2-amino-3-{[(2,4-dimethyl-5-sulfophenyl)carbamoyl]amino}propano is acid]	1.1 µM
COc1cc(NC(=O)NC[C@H](N)C(=O)O)cc(C(=O)O)c1 [Example 101, 3-({[(2S)-2-amino-2-carboxyethyl]carbamoyl}amino)-5-methoxybenzoic acid]	3.6 µM
N[C@@H](CCC(=O)Nc1cc(Cl)cc(S(=O)(=O)O)c1O)c1nnc(Cc2ccccc2)o1 [Example 16, 3-[(4S)-4-amino-4-(5-benzyl-1,3,4-oxadiazol-2-yl)butanamide]-5-chloro-2-hydroxybenzene-1-sulfonic acid]	0.88 µM
N[C@@H](CCC(=O)Nc1cc(Cl)cc(S(=O)(=O)O)c1O)C(=O)NNC(=O)Cc1ccccc1 [Example 17, 3-[(4S)-4-amino-5-oxo-5-(2-phenylacetohydrazide)pentanamide]-5-chloro-2-hydroxybenzene-1-sulfonic acid]	0.25 µM
N[C@@H](CNC(=O)Nc1cccc(S(=O)(=O)O)c1)C(=O)O [Example 77, (2S)-2-amino-3-{[(3-sulfophenyl)carbamoyl]amino}propanoic acid]	0.018 µM
N[C@@H](CNC(=O)Nc1cc(C(=O)O)cc([N+](=O)[O-])c1)C(=O)O [Example 92, 3-({[(2S)-2-amino-2-carboxyethyl]carbamoyl}amino)-5-nitrobenzoic acid]	1.8 µM
CC(=O)Nc1cc(S(=O)(=O)O)cc(NC(=O)NC[C@H](N)C(=O)O)c1O [Example 83, (2S)-2-amino-3-{[(3-acetamide-2-hydroxy-5-sulfophenyl)carbamoyl]amino}propanoic acid]	21.1 µM
Cc1ccc(C(=O)O)cc1NC(=O)NC[C@H](N)C(=O)O [Example 93, 3-({[(2S)-2-amino-2-carboxyethyl]carbamoyl}amino)-4-methylbenzoic acid]	5 µM
COc1ccc(S(=O)(=O)O)cc1NC(=O)NC[C@H](N)C(=O)O [Example 82, (2S)-2-amino-3-{[(2-methoxy-5-sulfophenyl)carbamoyl]amino}propanoic acid]	1 µM
Cc1nnc([C@@H](N)CCC(=O)Nc2cc(Cl)cc(S(=O)(=O)O)c2O)o1 [Example 15, 3-[(4S)-4-amino-4-(5-methyl-1,3,4-oxadiazol-2-yl)butanamide]-5-chloro-2-hydroxybenzene-1-sulfonic acid]	0.18 µM
C[C@H](OC(=O)Nc1cccc(S(=O)(=O)O)c1)[C@H](N)C(=O)O [Example 43, (2S,3S)-2-amino-3-{[(3-sulfophenyl)carbamoyl]oxy}butanoic acid]	7 µM
